ChEMBL document CHEMBL1152778, “Design, synthesis, and biological evaluation of (2R,alphaS)-3,4-dihydro-2-[3-(1,1,2,2-tetrafluoroethoxy)phenyl]-5-[3-(trifluoromethoxy)-phenyl]-alpha-(trifluoromethyl)-1(2H)-quinolineethanol as potent and orally active cholesteryl ester transfer protein inhibitor” (J Med Chem, 2009)
Calls of active or inactive are those of the source. The calls are words filed in the database; no cut-off is given here.

Key:
[1] = target: T1, Cholesteryl ester transfer protein (Homo sapiens, UniProt P11597); test: Inhibition of human plasma-derived CETP activity by scintillation proximity assay; assay type: cell-free
T1 sequence (P11597 whole entry): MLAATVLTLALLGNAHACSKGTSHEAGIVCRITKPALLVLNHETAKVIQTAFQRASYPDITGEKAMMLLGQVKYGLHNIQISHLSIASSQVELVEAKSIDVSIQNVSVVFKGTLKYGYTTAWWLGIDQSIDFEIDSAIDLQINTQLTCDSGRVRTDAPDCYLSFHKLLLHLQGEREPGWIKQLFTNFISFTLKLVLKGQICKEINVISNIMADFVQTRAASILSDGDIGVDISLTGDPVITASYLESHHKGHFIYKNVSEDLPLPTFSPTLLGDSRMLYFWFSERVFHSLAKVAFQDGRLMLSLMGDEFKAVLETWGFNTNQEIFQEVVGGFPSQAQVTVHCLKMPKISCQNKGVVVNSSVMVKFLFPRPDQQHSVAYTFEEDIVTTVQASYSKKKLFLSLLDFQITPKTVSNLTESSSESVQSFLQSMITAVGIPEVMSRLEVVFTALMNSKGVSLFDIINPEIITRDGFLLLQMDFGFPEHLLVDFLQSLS

[2] = target: T1, Cholesteryl ester transfer protein; test: Inhibition of CETP-mediated transfer of [3H]cholesteryl ester from HDL in human plasma after 18 hrs; assay type: cell-free
[3] = Inhibition of CETP-mediated transfer of cholesteryl ester to LDL/VLDL in hamster plasma by Roar assay; assay type: cell-free; settings: Cricetinae
[4] = Inhibition of CETP-mediated transfer of cholesteryl ester to LDL/VLDL in rabbit plasma by Roar assay; assay type: cell-free; settings: Oryctolagus cuniculus
[5] = target: T1, Cholesteryl ester transfer protein; test: Inhibition of CETP-mediated transfer of cholesteryl ester to LDL/VLDL in human plasma by Roar assay; assay type: cell-free
[6] = Inhibition of CETP-mediated transfer of cholesteryl ester to LDL/VLDL in monkey plasma by Roar assay; assay type: cell-free; settings: Macaca mulatta
[7] = target: Phospholipid transfer protein (Homo sapiens) (UniProt P55058); test: Inhibition of PLTP activity assessed as phosphatidylcholine transferred from [3H]phosphatidylcholine (dipalmitoyl)-labeled liposomes to HDL by cell based liquid scintillation counter
[8] = target: T2, Phosphatidylcholine-sterol acyltransferase (Homo sapiens) (UniProt P04180); test: Inhibition of LCAT activity in human plasma assessed as change in cholesteryl ester/free cholesterol ratio by cell based assay
T2 sequence (whole entry): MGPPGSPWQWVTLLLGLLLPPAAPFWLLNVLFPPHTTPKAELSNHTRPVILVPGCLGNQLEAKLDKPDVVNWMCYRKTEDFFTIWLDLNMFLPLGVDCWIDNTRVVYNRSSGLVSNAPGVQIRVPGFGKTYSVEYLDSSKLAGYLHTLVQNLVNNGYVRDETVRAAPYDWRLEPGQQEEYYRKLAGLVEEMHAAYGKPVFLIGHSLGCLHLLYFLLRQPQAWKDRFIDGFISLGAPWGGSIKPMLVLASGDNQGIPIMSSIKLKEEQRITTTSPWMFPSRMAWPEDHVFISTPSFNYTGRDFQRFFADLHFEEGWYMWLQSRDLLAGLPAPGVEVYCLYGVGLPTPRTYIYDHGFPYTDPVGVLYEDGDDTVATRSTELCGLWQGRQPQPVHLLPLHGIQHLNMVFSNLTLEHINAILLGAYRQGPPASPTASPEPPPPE

[9] = target: T3, Hepatic triacylglycerol lipase (Homo sapiens) (UniProt P11150); test: Inhibition of hepatic lipase activity assessed as release of free fatty acid from hydrolysis of VLDL by cell based assay
T3 sequence (whole entry): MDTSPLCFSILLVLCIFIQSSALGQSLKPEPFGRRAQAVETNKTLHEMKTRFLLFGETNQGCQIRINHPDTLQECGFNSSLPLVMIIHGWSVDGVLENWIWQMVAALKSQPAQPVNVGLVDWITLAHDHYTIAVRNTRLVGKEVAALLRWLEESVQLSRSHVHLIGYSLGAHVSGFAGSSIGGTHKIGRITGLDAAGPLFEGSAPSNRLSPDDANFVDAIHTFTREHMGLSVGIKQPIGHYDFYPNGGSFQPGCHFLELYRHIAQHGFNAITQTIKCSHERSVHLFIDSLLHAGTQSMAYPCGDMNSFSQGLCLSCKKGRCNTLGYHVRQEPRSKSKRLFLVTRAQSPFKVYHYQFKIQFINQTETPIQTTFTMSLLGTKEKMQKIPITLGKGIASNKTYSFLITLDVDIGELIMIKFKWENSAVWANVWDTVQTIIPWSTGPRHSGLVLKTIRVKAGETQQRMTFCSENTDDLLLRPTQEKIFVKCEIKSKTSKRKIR

[10] = target: T4, Lipoprotein lipase (Homo sapiens) (UniProt P06858); test: Inhibition of lipoprotein lipase activity assessed as release of free fatty acid from hydrolysis of VLDL by cell based assay
T4 sequence (whole entry): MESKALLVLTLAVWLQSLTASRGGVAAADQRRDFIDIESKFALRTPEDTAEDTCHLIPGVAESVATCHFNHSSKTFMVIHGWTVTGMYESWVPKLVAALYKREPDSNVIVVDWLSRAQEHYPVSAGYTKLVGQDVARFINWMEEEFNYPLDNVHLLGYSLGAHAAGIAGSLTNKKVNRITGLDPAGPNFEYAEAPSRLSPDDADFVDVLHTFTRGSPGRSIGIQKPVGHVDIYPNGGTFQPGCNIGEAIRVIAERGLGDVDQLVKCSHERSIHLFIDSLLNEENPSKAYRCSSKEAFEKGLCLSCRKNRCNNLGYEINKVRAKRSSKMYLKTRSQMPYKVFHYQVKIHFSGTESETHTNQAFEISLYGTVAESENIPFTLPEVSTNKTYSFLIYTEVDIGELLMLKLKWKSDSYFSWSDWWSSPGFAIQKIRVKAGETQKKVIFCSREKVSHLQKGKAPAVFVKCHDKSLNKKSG

[11] = target: T5, Microsomal triglyceride transfer protein large subunit (Homo sapiens) (UniProt P55157); test: Inhibition of microsomal triglyceride transfer protein by cell based assay
T5 sequence (whole entry): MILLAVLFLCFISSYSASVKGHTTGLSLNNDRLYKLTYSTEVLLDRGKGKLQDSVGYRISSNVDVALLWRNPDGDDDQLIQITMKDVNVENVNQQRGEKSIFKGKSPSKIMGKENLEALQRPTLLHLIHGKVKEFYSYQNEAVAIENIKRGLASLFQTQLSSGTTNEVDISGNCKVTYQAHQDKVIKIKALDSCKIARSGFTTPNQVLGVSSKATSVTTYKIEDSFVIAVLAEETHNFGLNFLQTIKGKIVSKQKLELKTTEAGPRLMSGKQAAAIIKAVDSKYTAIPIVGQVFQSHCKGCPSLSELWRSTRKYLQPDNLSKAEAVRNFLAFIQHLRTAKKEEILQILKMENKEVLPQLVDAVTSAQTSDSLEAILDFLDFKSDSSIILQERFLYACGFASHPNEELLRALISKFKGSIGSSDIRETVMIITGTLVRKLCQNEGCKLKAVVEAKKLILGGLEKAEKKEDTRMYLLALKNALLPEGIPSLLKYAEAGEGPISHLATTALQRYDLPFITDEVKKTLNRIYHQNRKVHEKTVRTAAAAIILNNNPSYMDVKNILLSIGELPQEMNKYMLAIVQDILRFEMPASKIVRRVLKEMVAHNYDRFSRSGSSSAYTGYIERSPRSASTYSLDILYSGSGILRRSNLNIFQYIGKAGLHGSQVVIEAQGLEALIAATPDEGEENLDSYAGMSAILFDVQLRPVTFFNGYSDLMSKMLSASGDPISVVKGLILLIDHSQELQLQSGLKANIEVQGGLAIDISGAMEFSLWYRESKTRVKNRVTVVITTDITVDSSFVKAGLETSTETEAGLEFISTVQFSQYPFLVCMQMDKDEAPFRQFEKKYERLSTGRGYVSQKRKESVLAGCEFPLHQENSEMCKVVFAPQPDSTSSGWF

[12] = target: T6, Endothelial lipase (Homo sapiens) (UniProt Q9Y5X9); test: Inhibition of endothelial lipase by cell based assay
T6 sequence (whole entry): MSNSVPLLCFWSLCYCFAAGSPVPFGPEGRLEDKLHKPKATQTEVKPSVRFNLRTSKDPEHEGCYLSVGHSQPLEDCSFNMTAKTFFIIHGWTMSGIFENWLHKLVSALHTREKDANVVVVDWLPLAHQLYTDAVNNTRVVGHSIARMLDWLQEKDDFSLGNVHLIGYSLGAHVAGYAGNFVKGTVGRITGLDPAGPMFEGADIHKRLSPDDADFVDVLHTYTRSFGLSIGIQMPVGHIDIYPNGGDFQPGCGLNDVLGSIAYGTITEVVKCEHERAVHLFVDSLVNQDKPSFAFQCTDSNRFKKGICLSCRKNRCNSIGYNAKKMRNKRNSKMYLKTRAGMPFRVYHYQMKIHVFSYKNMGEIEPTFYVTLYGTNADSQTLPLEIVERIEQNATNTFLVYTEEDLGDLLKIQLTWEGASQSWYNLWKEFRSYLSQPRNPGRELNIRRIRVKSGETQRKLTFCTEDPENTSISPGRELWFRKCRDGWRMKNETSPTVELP

[13] = Metabolic stability in human liver microsomes assessed as half life; assay type: ADME, Microsome
[14] = Oral bioavailability in rat at 10 mg/kg; assay type: ADME, organism-based; settings: in vivo
[15] = Tmax in rat at 2 to 3 mg/kg, iv and 10 mg/kg, po; assay type: ADME, organism-based; settings: in vivo
[16] = AUC in rat at 2 to 3 mg/kg, iv and 10 mg/kg, po; assay type: ADME, organism-based; settings: plasma
[17] = Half life in rat at 2 to 3 mg/kg, iv and 10 mg/kg, po; assay type: ADME, organism-based; settings: in vivo
[18] = Clearance in rat at 2 to 3 mg/kg, iv and 10 mg/kg, po; assay type: ADME, organism-based; settings: in vivo
[19] = Volume of distribution at steady state in rat at 2 to 3 mg/kg, iv and 10 mg/kg, po; assay type: ADME, organism-based; settings: in vivo, read-out: Vdss
[20] = Oral bioavailability in dog at 10 mg/kg; assay type: ADME, organism-based, Canis lupus familiaris; settings: in vivo

Chain of Phospholipid transfer protein (Homo sapiens) (P55058 whole entry): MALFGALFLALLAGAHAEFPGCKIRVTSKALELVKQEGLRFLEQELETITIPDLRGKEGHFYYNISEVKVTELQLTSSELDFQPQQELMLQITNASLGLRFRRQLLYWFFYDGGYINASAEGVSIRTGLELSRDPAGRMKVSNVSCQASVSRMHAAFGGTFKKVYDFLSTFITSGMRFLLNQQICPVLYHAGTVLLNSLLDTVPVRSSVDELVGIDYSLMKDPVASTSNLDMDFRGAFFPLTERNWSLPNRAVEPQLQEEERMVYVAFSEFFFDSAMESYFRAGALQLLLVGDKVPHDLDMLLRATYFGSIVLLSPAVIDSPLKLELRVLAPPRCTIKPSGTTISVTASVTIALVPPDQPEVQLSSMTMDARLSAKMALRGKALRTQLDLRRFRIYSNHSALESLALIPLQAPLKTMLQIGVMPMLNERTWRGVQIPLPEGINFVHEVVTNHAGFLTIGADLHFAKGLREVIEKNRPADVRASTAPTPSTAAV

IC50 [1]: 39 nM | IC50 [2]: 200 nM | IC50 [3]: 100 nM | IC50 [4]: 3.5 µM | IC50 [5]: 1200 nM | IC50 [6]: 1400 nM | Activity [7]: inactive | Activity [8]: inactive | Activity [9]: inactive | Activity [10]: inactive | Activity [11]: inactive | Activity [12]: inactive | half-life [13]: > 128 min | bioavailability [14]: 31% | Tmax [15]: 6 h | AUC [16]: 31300 ng·h/mL | half-life [17]: 1680 min | clearance [18]: 1.8 mL/min/kg | Vd [19]: 0.36 L/kg | bioavailability [20]: 5%
SMILES: O[C@@H](CN1c2cccc(-c3cccc(OC(F)(F)F)c3)c2CC[C@@H]1c1cccc(OC(F)(F)C(F)F)c1)C(F)(F)F
